This note sets out measurements from patent US12528783B2, “PqsR inverse agonists” (priority 2020, dated 2026).

The target of one data set is T1, PqsR (Pseudomonas aeruginosa, UniProt Q9I4X0).
T1 construct: expressed in transfected cells; host or cells: Escherichia coli DH5a carrying pEAL08-2
The data set is described as follows: PqsR inverse agonistic activity, reporter gene assay in E. coli. Type of data set: cell-based. Here is the method: Inhibition of pqsR-dependent gene expression of test compounds was determined in an E. coli based-galactosidase reporter gene assay. Escherichia coli DH5a was transfected with pEAL08-2 plasmid encoding pqsR under control of promoter tac and β-galactosidase reporter gene lacZ under control of promoter pqsA. Antagonistic effects of compounds were evaluated in the presence of/in competition to 50 nM PQS. A positive control was used to ensure the reliability of individual assays. First, PQS was diluted in methanol and added to the wells of a glass coated 96-deep-well plate, and the solvent was evaporated. Then, compounds were added in 5 μL DMSO to final concentrations of 0.001-10 μM. Overnight cultures of E. coli DH5a×pEAL08-2 were diluted 1:100 in LB medium with ampicillin (50 μg/ml) and incubated at 37° C. with shaking until it reached an OD600 of 0.2. Finally, 995 μL of culture was added to each well and the β-galactosidase activity was determined by ortho-nitrophenyl-β-galactoside conversion in permeabilized cells after a 2.5 h incubation period (37° C., 180 rpm). OD600, OD420, and OD550 were measured using POLARstar Omega (BMG Labtech, Ortenberg, Germany), and the activity was expressed as ratio of the slope of B-galactosidase activity between basal control (no PQS) and solvent control. IC50 values of antagonists were determined by variation of the concentration of the test compounds.
(In general: A reporter such as luciferase makes a cellular process visible.)

Data set [1] concerns P. aeruginosa pyocyanin production. Kind of data set: Pyocyanin assay. In kind it is cell-based. As to conditions: Pseudomonas aeruginosa, PA14, 16 h, read-out: IC50-value towards pyocyanin production, PA14 in PPGAS medium, 16 h. On the procedure:
Inhibition of P. aeruginosa pyocyanin production by compounds was determined photometrically as described before. In short, an overnight culture of PA14 in PPGAS medium was washed, diluted in medium to a start OD600 of 0.02, and incubated for 16 h (37° C., 200 rpm, relative humidity 75%) in the presence of test compounds. Then, cultures were extracted with chloroform and re-extracted with 0.2 M HCl. Protonated red colored pyocyanin was determined by measuring OD520 and normalizing to OD600.

The nature of data set [2]: Kinetic Turbidimetric Aqueous Solubility. Type of data set: physicochemical. The settings on record: aqueous buffer, kinetic from dmso stock, PBS buffer, room temperature. On the procedure: Kinetic Turbidimetric Aqueous Solubility at room temperature for 5 min. Test compound was diluted in PBS buffer to give a range of concentrations (typically 0.4, 2, 4, 20, 40, 100, and 200 μM, final DMSO concentration 2%) and incubated at room temperature for 5 min. Absorbance was measured at a wavelength of 620 nm and the solubility was estimated from the concentration of test compound that produces an increase in absorbance above the vehicle control (i.e., […]). Data was analyzed by fitting a four parameter sigmoidal function to the measured and normalized absorbances and AUC calculation providing access to Log S (decadic logarithm of the solubility).

T1 sequence (Q9I4X0 whole entry): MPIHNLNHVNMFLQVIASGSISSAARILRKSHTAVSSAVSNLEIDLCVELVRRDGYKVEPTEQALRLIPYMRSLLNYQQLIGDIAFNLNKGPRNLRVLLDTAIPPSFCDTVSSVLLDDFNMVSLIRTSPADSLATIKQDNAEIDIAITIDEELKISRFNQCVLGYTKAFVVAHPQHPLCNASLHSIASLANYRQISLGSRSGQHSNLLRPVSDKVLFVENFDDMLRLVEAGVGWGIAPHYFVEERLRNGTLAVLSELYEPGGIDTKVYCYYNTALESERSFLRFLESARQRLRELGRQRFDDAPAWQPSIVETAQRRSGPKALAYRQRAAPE

On to `Fc1ccccc1Nc1ccc(-n2cc(CNc3ccnc(C(F)(F)F)c3)nn2)cc1` [Compound 01], for which the IC50 – broadly, the concentration that inhibits the measured activity by half – at PqsR is at most 50 nM; in data set [1] it was 201 to 500 nM. The solubility (commonly the concentration that dissolves in the medium under given conditions) at 5 min in data set [2] was over 50 µM. In the same order, the values of `FC(F)(F)c1cc(NCc2cn(-c3cccc(Nc4ccccc4)c3)nn2)ccn1` [Compound 02] are at most 50 nM, at most 100 nM and over 10 µM.

Take `Fc1cccc(Nc2cccc(-n3cc(CNc4ccnc(C(F)(F)F)c4)nn3)c2)c1` [Compound 03]: the IC50 in data set [1] lay within 101 to 200 nM. Besides, the solubility at 5 min in data set [2] was over 10 µM. For the compound `Fc1ccc(Nc2cccc(-n3cc(CNc4ccnc(C(F)(F)F)c4)nn3)c2)cc1` [Compound 05], the IC50 on PqsR is at most 50 nM; in data set [1] it was 201 to 500 nM. This compound gave a solubility at 5 min in data set [2] of over 25 µM. Take `Fc1ccc(F)c(Nc2cccc(-n3cc(CNc4ccnc(C(F)(F)F)c4)nn3)c2)c1` [Compound 06]: the IC50 in data set [1] was 101 to 200 nM. In data set [2], the solubility at 5 min is over 10 µM. Take `Fc1ccc(F)c(Nc2cccc(-n3cc(CNc4cc(Cl)nc(C(F)(F)F)c4)nn3)c2)c1` [Compound 07]: in data set [1], the half-maximal inhibitory concentration (IC50) was in the range of 101 to 200 nM. This compound also gave a solubility at 5 min in data set [2] of over 25 µM. In the same order, the values of `Nc1cccc(-c2ncc(CNc3cc(Cl)nc(C(F)(F)F)c3)cn2)c1` [Compound 10] are 501 to 1000 nM and at least 100 µM. In the same order, the values of `Nc1cc(-c2ncc(CNc3cc(Cl)nc(C(F)(F)F)c3)cn2)ccc1Cl` [Compound 11] are 501 to 1000 nM and over 25 µM. Regarding `FC(F)(F)c1cc(SCc2nc3cc(Cc4ccccc4)ccc3[nH]2)ccn1` [Compound 12], the IC50 on PqsR was at most 50 nM; in data set [1] it was 201 to 500 nM. In addition, in data set [2], the solubility at 5 min was over 25 µM. For `Nc1cc(SCc2nc3cc(Nc4ccccc4)ccc3[nH]2)cc(C(F)(F)F)n1` [Compound 13], the IC50 in data set [1] is 101 to 200 nM. The compound also came in with a solubility at 5 min in data set [2] of over 10 µM. Turning to `Nc1cc(SCc2nc3cc(Nc4ccccc4)ccc3[nH]2)nc(C(F)(F)F)n1` [Compound 14], the values for the IC50 (on PqsR; in data set [1]) were at most 50 nM and 101 to 200 nM, respectively. Further, in data set [2], the solubility at 5 min was over 25 µM. As for `FC(F)(F)c1cc(SCc2nc3ccc(Nc4ccccc4)cc3o2)ccn1` [Compound 15], the IC50 was 51 to 250 nM at PqsR and 201 to 500 nM in data set [1].

Turning to `FC(F)(F)c1cc(SCc2nc3ccc(Nc4ccccc4)cc3s2)ccn1` [Compound 16], the 50% inhibitory concentration (IC50) on PqsR fell in the range of 51 to 250 nM; in data set [1] it was 501 to 1000 nM. On the same counts, the results for `FC(F)(F)c1cc(SCc2nc3cc(NC4CCCCC4)ccc3[nH]2)ccn1` [Compound 17] are 51 to 250 nM and 501 to 1000 nM. Consider `FC(F)(F)c1cc(SCc2nc3cc(Nc4ccccn4)ccc3[nH]2)ccn1` [Compound 18], for which, in data set [1], the 50% inhibitory concentration (IC50) lay in the range of 201 to 500 nM. Besides, the solubility at 5 min in data set [2] was over 50 µM. On the same counts, the results for `FC(F)(F)c1cc(SCc2nc3cc(Nc4cccnc4)ccc3[nH]2)ccn1` [Compound 19] are 501 to 1000 nM and at least 100 µM. In the same order, the values of `Nc1cc(SCc2nc3cc(Nc4cccnc4)ccc3[nH]2)cc(C(F)(F)F)n1` [Compound 20] are 201 to 500 nM and over 25 µM.

For the compound `Fc1ccccc1Nc1ccc2[nH]c(CSc3ccnc(C(F)(F)F)c3)nc2c1` [Compound 22], the solubility at 5 min in data set [2] was over 25 µM. With `Fc1cccc(Nc2ccc3[nH]c(CSc4ccnc(C(F)(F)F)c4)nc3c2)c1` [Compound 23], the IC50 in data set [1] is at most 100 nM. The solubility at 5 min in data set [2] was over 10 µM. As to `Nc1cc(SCc2nc3cc(Nc4cccc(F)c4)ccc3[nH]2)cc(C(F)(F)F)n1` [Compound 24], the IC50 in data set [1] is at most 100 nM. The compound further came in with a solubility at 5 min in data set [2] of over 10 µM. `Fc1ccc(Nc2ccc3[nH]c(CSc4ccnc(C(F)(F)F)c4)nc3c2)cc1` [Compound 26] gave a solubility at 5 min in data set [2] of over 25 µM. With `FC(F)(F)c1cc(SCc2nc3cc(Nc4ccccc4Cl)ccc3[nH]2)ccn1` [Compound 27], the IC50 in data set [1] was at most 100 nM. For `FC(F)(F)c1cc(SCc2nc3cc(Nc4cccc(Cl)c4)ccc3[nH]2)ccn1` [Compound 28], the solubility at 5 min in data set [2] is over 10 µM. Consider `Cc1ccccc1Nc1ccc2[nH]c(CSc3ccnc(C(F)(F)F)c3)nc2c1` [Compound 29], for which the 50% inhibitory concentration (IC50) in data set [1] fell in the range of 101 to 200 nM. Turning to `Cc1cccc(Nc2ccc3[nH]c(CSc4ccnc(C(F)(F)F)c4)nc3c2)c1` [Compound 30], the IC50 in data set [1] lay within 101 to 200 nM. The solubility at 5 min in data set [2] is over 10 µM. On the same counts, the results for `Cc1ccc(Nc2ccc3[nH]c(CSc4ccnc(C(F)(F)F)c4)nc3c2)cc1` [Compound 31] are 101 to 200 nM and over 10 µM. Take `COc1cccc(Nc2ccc3[nH]c(CSc4ccnc(C(F)(F)F)c4)nc3c2)c1` [Compound 33]: the 50% inhibitory concentration (IC50) in data set [1] lay within 101 to 200 nM. Further, the solubility at 5 min in data set [2] was over 10 µM. Turning to `COc1ccc(Nc2ccc3[nH]c(CSc4ccnc(C(F)(F)F)c4)nc3c2)cc1` [Compound 34], the half-maximal inhibitory concentration (IC50) at PqsR lay in the range of 51 to 250 nM. This compound gave a solubility at 5 min in data set [2] of over 25 µM. `NC(=O)c1ccccc1Nc1ccc2[nH]c(CSc3ccnc(C(F)(F)F)c3)nc2c1` [Compound 35]: the IC50 in data set [1] fell in the range of 101 to 200 nM. In data set [2], this compound gave a solubility at 5 min of over 50 µM. `FC(F)(F)Oc1ccccc1Nc1ccc2[nH]c(CSc3ccnc(C(F)(F)F)c3)nc2c1` [Compound 38]: the IC50 in data set [1] was 201 to 500 nM.

In data set [2], `Cc1ccc(Nc2ccc3[nH]c(CSc4ccnc(C(F)(F)F)c4)nc3c2)nc1` [Compound 40] showed a solubility at 5 min of over 25 µM. In the case of `Fc1cncc(Nc2ccc3[nH]c(CSc4ccnc(C(F)(F)F)c4)nc3c2)c1` [Compound 41], the IC50 in data set [1] lay within 201 to 500 nM. The solubility at 5 min in data set [2] is over 50 µM.

On to `Fc1cc(F)cc(Nc2ccc3[nH]c(CSc4ccnc(C(F)(F)F)c4)nc3c2)c1` [Compound 43], for which the solubility at 5 min in data set [2] was over 25 µM. Same read-out and setting: in the case of `Fc1ccc(F)c(Nc2ccc3[nH]c(CSc4ccnc(C(F)(F)F)c4)nc3c2)c1` [Compound 44] it was over 25 µM. For `Fc1ccc(Nc2ccc3[nH]c(CSc4ccnc(C(F)(F)F)c4)nc3c2)cc1F` [Compound 47], the IC50 in data set [1] is at most 100 nM. For the same compound, the solubility at 5 min in data set [2] was over 10 µM. Take `Fc1c(Nc2ccc3[nH]c(CSc4ccnc(C(F)(F)F)c4)nc3c2)cccc1C(F)(F)F` [Compound 48]: the IC50 in data set [1] was in the range of 101 to 200 nM. `Fc1cc(C(F)(F)F)ccc1Nc1ccc2[nH]c(CSc3ccnc(C(F)(F)F)c3)nc2c1` [Compound 49]: the IC50 in data set [1] was in the range of 101 to 200 nM. The solubility at 5 min in data set [2] was over 25 µM.

Regarding `Fc1ccc(C(F)(F)F)cc1Nc1ccc2[nH]c(CSc3ccnc(C(F)(F)F)c3)nc2c1` [Compound 50], in data set [1], the IC50 lay within 201 to 500 nM. Still for that read-out and setting: with `Cc1ccc(Nc2ccc3[nH]c(CSc4ccnc(C(F)(F)F)c4)nc3c2)cc1F` [Compound 51] the figure was at most 100 nM.

For `COc1ccc(Nc2ccc3[nH]c(CSc4ccnc(C(F)(F)F)c4)nc3c2)cc1F` [Compound 53], the solubility at 5 min in data set [2] was over 25 µM. For the compound `COc1cc(F)cc(Nc2ccc3[nH]c(CSc4ccnc(C(F)(F)F)c4)nc3c2)c1` [Compound 54], the IC50 in data set [1] was 201 to 500 nM. Besides, the solubility at 5 min in data set [2] was over 25 µM. As for `Cc1c(F)cc(Nc2ccc3[nH]c(CSc4ccnc(C(F)(F)F)c4)nc3c2)cc1F` [Compound 55], the IC50 in data set [1] fell in the range of 101 to 200 nM. Besides, in data set [2], the solubility at 5 min was over 10 µM. In the same order, the values of `Fc1cccc(Nc2cc(F)c3[nH]c(CSc4ccnc(C(F)(F)F)c4)nc3c2)c1` [Compound 57] are at most 100 nM and over 10 µM. For `Fc1cc(Nc2cccnc2)cc2nc(CSc3ccnc(C(F)(F)F)c3)[nH]c12` [Compound 58], the IC50 in data set [1] is 201 to 500 nM. In data set [2], this compound had a solubility at 5 min of over 50 µM. On the same counts, the results for `FC(F)(F)c1cc(NCc2nc3cc(Nc4ccccc4)ccc3[nH]2)ccn1` [Compound 60] are 201 to 500 nM and at least 100 µM. Compound `Fc1ccccc1Nc1ccc2[nH]c(COc3ccnc(C(F)(F)F)c3)nc2c1` [Compound 63] yielded a solubility at 5 min in data set [2] of over 10 µM. As to `Fc1cccc(Nc2ccc3[nH]c(COc4ccnc(C(F)(F)F)c4)nc3c2)c1` [Compound 64], the IC50 in data set [1] lay within 201 to 500 nM. Moreover, the solubility at 5 min in data set [2] was over 25 µM. For `FC(F)(F)c1cc(OCc2nc3cc(Nc4ccccc4Cl)ccc3[nH]2)ccn1` [Compound 65], in data set [1], the IC50 is 201 to 500 nM.
